The record followed here is PubChem BioAssay (NCI).

SMILES strings stand for the structures.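 Five compound concentrations were applied to cells in 96-well plates for 48 hours; endpoints were derived by simple linear interpolation of the resulting dose-response curve. Here, GI50 denotes the concentration required for 50% inhibition of growth. Definition used: TGI = concentration required for complete inhibition of growth.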 Where a SMILES comes first, the peptide text is derived from it. Bridges are numbered along the chain shown (N, C = ends). [ ]: non-standard residue; d: D form. ξ: configuration not given here. ξThr(3R) = C[C@@H](O)C(N)C(=O)O; S5 = C=CCCC[C@](C)(N)C(=O)O Bounds are passed on as bounds.

Among the test systems are M14 melanoma; HS 578T breast; MOLT-4 leukemia; CCRF-CEM leukemia; UACC-62 melanoma; EKVX NSCLC; SK-MEL-5 melanoma; SNB-75 CNS; COLO 205 colon; DU-145 prostate.
What all share (experiment): NCI-60 cell line screen, 48 h

Consider `COc1cccc(/C=C/c2ccnc3ccccc23)c1OC`, for which the TGI in the test on M14 melanoma, in the test on HS 578T breast, with MOLT-4 leukemia, with CCRF-CEM leukemia, in the test on UACC-62 melanoma and with EKVX NSCLC was over 10 µM each time. Moreover, the TGI in the test on SK-MEL-5 melanoma, in the test with SNB-75 CNS, in the test with COLO 205 colon and with DU-145 prostate was over 10 µM each time.
`NC(Cc1c[nH]c2ccc(F)cc12)C(=O)O` (stereo not drawn): the GI50 in the test on M14 melanoma is 643 µM; with HS 578T breast, 506 µM; in the test with MOLT-4 leukemia, 1030 µM; with CCRF-CEM leukemia, 1090 µM; in the test on UACC-62 melanoma, 755 µM; in the test on EKVX NSCLC it was 1000 µM. In addition, the GI50 is 375 µM in the test with SK-MEL-5 melanoma, 489 µM in the test on SNB-75 CNS, 340 µM in the test on COLO 205 colon and 1310 µM in the test with DU-145 prostate. Further, the TGI with M14 melanoma was over 2500 µM; in the test on HS 578T breast, 1590 µM; in the test with MOLT-4 leukemia, over 2500 µM; in the test with CCRF-CEM leukemia, over 2500 µM; in the test with UACC-62 melanoma it was over 2500 µM; with EKVX NSCLC, over 2500 µM. For the same compound, the TGI in the test with SK-MEL-5 melanoma was 711 µM; with SNB-75 CNS, 1390 µM; in the test on COLO 205 colon, 1010 µM; in the test with DU-145 prostate it was over 2500 µM.
On to `CCN(CC)c1ccc(C2NC(=O)c3ccccc3N2)cc1` (stereo not drawn), for which the TGI is over 100 µM in the test on M14 melanoma; over 30 µM in the test with HS 578T breast; over 100 µM in the test with MOLT-4 leukemia; 3.38 µM in the test on CCRF-CEM leukemia; over 100 µM in the test with UACC-62 melanoma; over 100 µM in the test with EKVX NSCLC. In addition, the TGI with SK-MEL-5 melanoma was over 100 µM; with SNB-75 CNS, over 20.3 µM; in the test on COLO 205 colon, 4.51 µM; with DU-145 prostate, over 100 µM.
Turning to `CC(=O)N[C@H](C(=O)N[C@@H](CCCNC(=N)N)C(=O)N[C@@H](CCCCN)C(=O)N[C@@H](CCCNC(=N)N)C(=O)NC(C(=O)N[C@@H](CC(C)C)C(=O)N[C@@H](CCCNC(=N)N)C(=O)N[C@@]1(C)CCC/C=C\CCC[C@@](C)(C(=O)N[C@@H](CCCNC(=N)N)C(=O)N[C@@H](CCC(=O)O)C(=O)N[C@@H](CC(C)C)C(=O)N[C@H](C(=O)N[C@@H](CCC(=O)O)C(N)=O)C(C)C)NC(=O)[C@H](CCC(N)=O)NC(=O)[C@H](CC(C)C)NC(=O)[C@H](CC(C)C)NC1=O)[C@@H](C)O)C(C)C` (stereo partly drawn) (Ac-VRKR[ξThr(3R)]LR[S5]LLQ[S5]RELVE-NH2; staple (Z) 8-12), the GI50 in the test on M14 melanoma is 4.27 µM; in the test on HS 578T breast it was 1.48 µM; in the test on MOLT-4 leukemia, 9.85 µM; in the test with CCRF-CEM leukemia, 11.2 µM; with UACC-62 melanoma it was 1.13 µM; in the test on EKVX NSCLC, 6.03 µM. In addition, the GI50 with SK-MEL-5 melanoma was 2.01 µM; in the test with SNB-75 CNS, 3.8 µM; with COLO 205 colon, 2.41 µM; in the test on DU-145 prostate, 2.68 µM. In addition, the TGI in the test on M14 melanoma is 11.5 µM; in the test with HS 578T breast it was 5.31 µM; in the test with MOLT-4 leukemia it was 22.9 µM; in the test on CCRF-CEM leukemia, 34.2 µM; in the test with UACC-62 melanoma, 2.81 µM; in the test with EKVX NSCLC it was 14.2 µM. For the same compound, the TGI with SK-MEL-5 melanoma amounted to 8.43 µM; with SNB-75 CNS it was 10.8 µM; in the test on COLO 205 colon it was 9.89 µM; in the test with DU-145 prostate, 9.2 µM.
As to `CCCCN=C(N)c1ccc(N2CCCN(c3ccc(C(N)=NCCCC)cc3)CC2)cc1`, the GI50 in the test on M14 melanoma was 43.1 µM; in the test on HS 578T breast, 5.02 µM; with MOLT-4 leukemia, 25.2 µM; in the test on CCRF-CEM leukemia, 16.3 µM; with UACC-62 melanoma it was 7.58 µM; in the test with EKVX NSCLC, 10.6 µM. For the same compound, the GI50 in the test with SK-MEL-5 melanoma was 5.04 µM; with SNB-75 CNS, 6.29 µM; in the test on COLO 205 colon, 6.82 µM; in the test with DU-145 prostate, 25.1 µM. Also, the TGI with M14 melanoma was over 100 µM; with HS 578T breast it was over 90.7 µM; in the test with MOLT-4 leukemia it was over 100 µM; in the test with CCRF-CEM leukemia, over 100 µM; with UACC-62 melanoma, 27.5 µM; in the test with EKVX NSCLC, over 100 µM. In addition, the TGI was 21.7 µM in the test with SK-MEL-5 melanoma, over 100 µM with SNB-75 CNS, over 100 µM with COLO 205 colon and over 100 µM with DU-145 prostate.
With `COc1ccc(Cn2cc3c(c2)-c2oncc2CC3)cc1OC`, the GI50 was 0.154 µM in the test with M14 melanoma; 0.132 µM in the test with HS 578T breast; 0.274 µM in the test on MOLT-4 leukemia; 0.132 µM with CCRF-CEM leukemia; 0.273 µM in the test with UACC-62 melanoma; 0.233 µM in the test on EKVX NSCLC. Further, the GI50 in the test on SK-MEL-5 melanoma is 0.229 µM; with SNB-75 CNS it was 0.123 µM; in the test with COLO 205 colon it was 0.134 µM; in the test on DU-145 prostate, 0.163 µM. Further, the TGI was 16 µM with M14 melanoma; 0.447 µM in the test with HS 578T breast; over 12.2 µM in the test with MOLT-4 leukemia; over 50 µM in the test with UACC-62 melanoma; over 33.7 µM with EKVX NSCLC; 1.7 µM with SK-MEL-5 melanoma. The TGI is 0.761 µM in the test on SNB-75 CNS, 0.346 µM in the test with COLO 205 colon and 0.544 µM in the test on DU-145 prostate.
On to `O=C(COc1ccc(OCC(=O)N2C(=O)CN(c3ccccc3)C2=S)cc1)N1C(=O)CN(c2ccccc2)C1=S`, for which the GI50 with M14 melanoma was over 25 µM; in the test on HS 578T breast it was over 25 µM; in the test on MOLT-4 leukemia, over 100 µM; in the test on UACC-62 melanoma it was over 25 µM; in the test with EKVX NSCLC it was over 25 µM; in the test on SK-MEL-5 melanoma, over 100 µM. Further, the GI50 in the test on SNB-75 CNS is 33.7 µM; in the test with COLO 205 colon it was over 25 µM; with DU-145 prostate, over 25 µM. The TGI with M14 melanoma, in the test on HS 578T breast, in the test on MOLT-4 leukemia, in the test on UACC-62 melanoma, in the test with EKVX NSCLC and with SK-MEL-5 melanoma was over 100 µM throughout. Further, the TGI in the test with SNB-75 CNS, in the test on COLO 205 colon and with DU-145 prostate was over 100 µM each time.
For `CCCCCCCCCCCCCCCCCCOc1ccccc1CC(=O)OCC[N+](CC)(CC)CC`, the GI50 in the test on M14 melanoma is 1.53 µM; in the test with HS 578T breast it was 1.34 µM; in the test with MOLT-4 leukemia it was 1.26 µM; with CCRF-CEM leukemia, 1.48 µM; in the test on UACC-62 melanoma it was 1.16 µM; in the test on EKVX NSCLC, 2.15 µM. The GI50 in the test with SK-MEL-5 melanoma was 0.942 µM; with SNB-75 CNS, 0.968 µM; in the test with DU-145 prostate it was 2.07 µM. The TGI with M14 melanoma came to 5.4 µM; in the test with HS 578T breast it was 4.55 µM; in the test with MOLT-4 leukemia it was 3.07 µM; with CCRF-CEM leukemia, 13.1 µM; in the test on UACC-62 melanoma, 3.37 µM; in the test with EKVX NSCLC, 8.44 µM. For the same compound, the TGI with SK-MEL-5 melanoma is 1.75 µM; with SNB-75 CNS, 4.23 µM; with DU-145 prostate it was 7.99 µM.
Turning to `O=C1c2ccccc2C(=O)c2c1ccc1c(=O)n(-c3ccccc3C(F)(F)F)nnc21`, the GI50 in the test with HS 578T breast was 3.04 µM; in the test on MOLT-4 leukemia it was 1.53 µM; in the test on CCRF-CEM leukemia, 2.03 µM; in the test with UACC-62 melanoma, 1.52 µM; in the test on EKVX NSCLC it was 2.36 µM; in the test on SK-MEL-5 melanoma, 1.67 µM. In addition, the figures for the GI50 in the test on SNB-75 CNS, in the test on COLO 205 colon and in the test on DU-145 prostate were 1.56 µM, 1.83 µM and 3.19 µM, respectively. The TGI in the test with HS 578T breast was over 100 µM; in the test on MOLT-4 leukemia, 8.12 µM; with CCRF-CEM leukemia, over 100 µM; with UACC-62 melanoma, 3.21 µM; in the test on EKVX NSCLC, 6.43 µM; in the test with SK-MEL-5 melanoma, 3.05 µM. Also, the figures for the TGI in the test on SNB-75 CNS, with COLO 205 colon and with DU-145 prostate were 15.5 µM, 4.28 µM and over 100 µM, respectively.
Turning to `Cc1ccc(-c2nc(N3CCNCC3)c3oc(-c4ccccc4)nc3n2)cc1`, the GI50 is 1.78 µM in the test with M14 melanoma; 2.53 µM in the test with HS 578T breast; 1.91 µM in the test on MOLT-4 leukemia; 2.16 µM in the test with CCRF-CEM leukemia; 1.74 µM in the test on UACC-62 melanoma; 3.94 µM with EKVX NSCLC. Further, the values for the GI50 in the test with SNB-75 CNS, with COLO 205 colon and in the test on DU-145 prostate were 1.62 µM, 1.81 µM and 1.74 µM, respectively. In addition, the TGI was 3.31 µM in the test on M14 melanoma; 7.69 µM with HS 578T breast; 3.67 µM in the test on MOLT-4 leukemia; 4.79 µM in the test with CCRF-CEM leukemia; 3.19 µM in the test on UACC-62 melanoma; over 100 µM in the test with EKVX NSCLC. In addition, the TGI in the test with SNB-75 CNS came to 3.02 µM; in the test with COLO 205 colon, 3.53 µM; with DU-145 prostate, 3.19 µM.
Take `Cc1ccc(/C=C/c2c(C(=O)/C=C/c3ccc(Cl)cc3)c(C)nc3ccccc23)cc1`: the GI50 was 1.64 µM with M14 melanoma; 2.75 µM in the test with HS 578T breast; 2.18 µM in the test with MOLT-4 leukemia; 1.75 µM in the test on UACC-62 melanoma; 1.86 µM with EKVX NSCLC; 1.62 µM in the test with SK-MEL-5 melanoma. Further, the GI50 was 1.51 µM with SNB-75 CNS, 2.17 µM in the test with COLO 205 colon and 1.74 µM with DU-145 prostate. The TGI in the test with M14 melanoma is 3.4 µM; with HS 578T breast, 8.66 µM; in the test with MOLT-4 leukemia, over 100 µM; with UACC-62 melanoma it was 3.72 µM; in the test on EKVX NSCLC, 4.53 µM; in the test with SK-MEL-5 melanoma, 3 µM. For the same compound, the values for the TGI in the test on SNB-75 CNS, in the test on COLO 205 colon and in the test with DU-145 prostate were 3.24 µM, 5.46 µM and 3.27 µM, respectively.
Take `C[C@H](CS)C(=O)N1c2ccccc2C[C@H]1C(=O)O`: the TGI in the test with HS 578T breast, in the test with MOLT-4 leukemia, in the test on CCRF-CEM leukemia, in the test with UACC-62 melanoma, in the test on EKVX NSCLC and in the test with SK-MEL-5 melanoma was over 100 µM in each case. Moreover, the TGI in the test on SNB-75 CNS, in the test on COLO 205 colon and with DU-145 prostate was over 100 µM each time.
